Data reported in patent US20020169175A1, “Pharmaceutically acceptable salts of heterocyclic compounds” (DR. REDDY'S LABORATORIES LTD., priority 2001, published 2002).
Where a name gives a salt, the structure may show the parent alone.

Legend:
[1] = target: T1, hPPARα (Homo sapiens, UniProt Q07869); assay: Determination of hPPARα activity (GAL4 fusion luciferase reporter in transfected HEK-293 cells); assay type: cell-based; details: compound concentration 50 μM
T1 construct: expressed in transfected cells; host or cells: HEK-293
T1 sequence (Q07869 239-466 limits assumed): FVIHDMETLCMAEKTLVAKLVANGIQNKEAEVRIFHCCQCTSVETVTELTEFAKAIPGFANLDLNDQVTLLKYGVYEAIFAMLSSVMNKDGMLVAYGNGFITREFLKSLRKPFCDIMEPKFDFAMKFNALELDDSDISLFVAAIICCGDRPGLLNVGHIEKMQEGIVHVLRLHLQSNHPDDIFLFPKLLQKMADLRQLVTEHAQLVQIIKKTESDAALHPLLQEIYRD
Protocol: a) Determination of hPPARα Activity
Ligand binding domain of hPPARα was fused to DNA binding domain of Yeast transcription factor GAL4 in eucaryotic expression vector. Using superfect (Qiagen, Germany) as transfecting reagent HEK-293 cells were transfected with this plasmid and a reporter plasmid harboring the luciferase gene driven by a GAL4 specific promoter. Compound was added at different concentrations after 42 hrs of transfection and incubated overnight. Luciferase activity as a function of compound binding/activation capacity of PPARα was measured using Packard Luclite kit (Packard, USA) in Top Count (Ivan Sadowski, Brendan Bell, Peter Broag and Melvyn Hollis. Gene. 1992. 118: 137-141; Superfect Transfection Reagent Handbook. February 1997. Qiagen, Germany).

[2] = target: T2, hPPARγ1 (Homo sapiens, UniProt P37231); assay: Determination of hPPARγ activity (GAL4 fusion luciferase reporter in transfected HEK-293 cells); assay type: cell-based; details: compound concentration 1 μM
T2 construct: expressed in transfected cells; host or cells: HEK-293
T2 sequence (P37231 238-503 limits assumed): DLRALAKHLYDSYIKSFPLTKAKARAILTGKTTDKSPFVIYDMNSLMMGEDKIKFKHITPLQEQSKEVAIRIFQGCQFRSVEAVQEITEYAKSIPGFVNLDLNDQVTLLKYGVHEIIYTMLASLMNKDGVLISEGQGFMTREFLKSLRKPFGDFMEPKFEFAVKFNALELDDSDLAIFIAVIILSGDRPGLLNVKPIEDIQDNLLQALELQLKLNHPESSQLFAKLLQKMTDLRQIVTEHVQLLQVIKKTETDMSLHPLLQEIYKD
Protocol: b) Determination of hPPARγ Activity
Ligand binding domain of hPPARγ1 was fused to DNA binding domain of Yeast transcription factor GAL4 in eucaryotic expression vector. Using lipofectamine (Gibco BRL, USA) as transfecting reagent HEK-293 cells were transfected with this plasmid and a reporter plasmid harboring the luciferase gene driven by a GAL4 specific promoter. Compound was added at 1 μM concentration after 48 hrs of transfection and incubated overnight. Luciferase activity as a function of drug binding/activation capacity of PPARγ1 was measured using Packard Luclite kit (Packard, USA) in Packard Top Count (Ivan Sadowski, Brendan Bell, Peter Broag and Melvyn Hollis. Gene. 1992. 118: 137-141; Guide to Eukaryotic Transfections with Cationic Lipid Reagents. Life Technologies, GIBCO BRL, USA).

[3] = test system: C57BL/KsJ-db/db mice; assay: Efficacy in genetic models: blood sugar lowering in db/db mice; assay type: in vivo, mouse; details: 0.1 mg/kg oral gavage daily for 6 days
Text: a) Efficacy in Genetic Models
Mutation in colonies of laboratory animals and different sensitivities to dietary regimens have made the development of animal models with non-insulin dependent diabetes and hyperlipidemia associated with obesity and insulin resistance possible. Genetic models such as db/db and ob/ob (Diabetes, (1982) 31(1): 1-6) mice and zucker fa/fa rats have been developed by the various laboratories for understanding the pathophysiology of disease and testing the efficacy of new antidiabetic compounds (Diabetes, (1983) 32: 830-838; Annu. Rep. Sankyo Res. Lab. (1994). 46: 1-57). […]
The random blood sugar and triglyceride levels were measured by collecting blood (100 μl) through orbital sinus, using heparinised capillary in tubes containing EDTA which was centrifuged to obtain plasma. The plasma glucose and triglyceride levels were measured spectrometrically, by glucose oxidase and glycerol-3-PO4 oxidase/peroxidase enzyme (Dr. Reddy's Lab. Diagnostic Division Kits, Hyderabad, India) methods respectively.
The blood sugar and triglycerides lowering activities of the test compound was calculated according to the formula.
(§1) 1. Percent reduction in Blood sugar/triglycerides/total cholesterol were calculated according to the formula: [formula]

[4] = test system: Swiss albino mice; assay: Plasma triglyceride and total cholesterol lowering activity in Swiss albino mice and Guinea pigs; assay type: in vivo, mouse; details: dose 0.3 mg/kg, oral, 6 days
Protocol: c) Plasma Triglyceride and Total Cholesterol Lowering Activity in Swiss Albino Mice and Guinea Pigs
Male Swiss albino mice (SAM) and male Guinea pigs were obtained from NIN and housed in DRF animal house. All these animals were maintained under 12 hour light and dark cycle at 25±1° C. Animals were given standard laboratory chow (NIN Hyderabad, India) and water, ad libitum. SAM of 20-25 g body weight range and Guinea pigs of 500-700 g body weight range were used (Oliver, P., Plancke, M. O., Marzin, D., Clavey, V., Sauzieres, J and Fruchart, J. C. Effects of fenofibrate, gemfibrozil and nicotinic acid on plasma lipoprotein levels in normal and hyperlipidemic mice. Atherosclerosis. 1988. 70: 107-114).
The test compounds were administered orally to Swiss albino mice at 0.3 to 30 mg/kg/day dose for 6 days. Control mice were treated with vehicle (0.25% Carboxymethylcellulose; dose 10 ml/kg). The test compounds were administered orally to Guinea pigs at 0.3 to 30 mg/kg/day dose for 6 days. Control animals were treated with vehicle (0.25% Carboxymethylcellulose; dose 5 ml/kg).
The blood samples were collected in fed state 1 hour after drug administration on 0 and 6 day of treatment. The blood was collected from the retro-orbital sinus through heparinised capillary in EDTA containing tubes. After centrifugation, plasma sample was separated for triglyceride and total cholesterol (Wieland, O. Methods of Enzymatic analysis. Bergermeyer, H. O., Ed., 1963. 211-214; Trinder, P. Ann. Clin. Biochem. 1969. 6: 24-27). Measurement of plasma triglyceride, total cholesterol and HDL were done using commercial kits (Dr. Reddy's Diagnostic Division, Hyderabad, India).
as §1

With `CCO[C@@H](Cc1ccc(OCCn2c(CC)nc3ccccc3c2=O)cc1)C(=O)O` [Example 11, (−)-3-[4-[2-(2-Ethyl-4-oxo-3,4-dihydroquinazolin-3-yl)ethoxy]phenyl]-2-ethoxypropanoic acid arginine salt] the PPARα [1] was 13.8, the PPARγ [2] was 27.0 and the “Reduction in Blood Glucose Level (%)” value [3] was 61%. For the same compound, the “Triglyceride Lowering (%)” value [4] was 58%.
